Laboratory results as given in US8956999B2, “Herbicides” (Syngenta Limited, priority 2007, dated 2015).

How the values were obtained:
Type in all cases: in vivo
[1] = test system: Setaria faberi (SETFA); assay: Example B post-emergence herbicidal test, glasshouse; details: 312 h, rate 250 g/ha, evaluated after 13 days, read-out: Post-Emergence Activity SEFTA (100=total damage to plant; 0=no damage to plant)
Procedure: (§1) Seeds of a variety of test species were sown in standard soil in pots. After cultivation for one day (pre-emergence) or after 8 days cultivation (post-emergence) under controlled conditions in a glasshouse (at 24/16° C., day/night; 14 hours light; 65% humidity), the plants were sprayed with an aqueous spray solution derived from the formulation of the technical active ingredient in acetone/water (50:50) solution containing 0.5% Tween 20 (polyoxyethelyene sorbitan monolaurate, CAS RN 9005-64-5). The test plants were then grown in a glasshouse under controlled conditions in a glasshouse (at 24/16° C., day/night; 14 hours light; 65% humidity) and watered twice daily. After 13 days for pre and post-emergence, the test was evaluated (100=total damage to plant; 0=no damage to plant). Test Plants: Alopecurus myosuroides (ALOMY), Avena fatua (AVEFA), Setaria faberi (SETFA), Echinochloa crus-galli (ECHCG), Solanum nigrum (SOLNI) and Amaranthus retoflexus (AMARE)

[2] = test system: Echinochloa crus-galli (ECHCG); assay: as above; details: 312 h, rate 250 g/ha, evaluated after 13 days, read-out: Post-Emergence Activity ECHGG (100=total damage to plant; 0=no damage to plant)
Procedure: as §1

[3] = test system: Alopecurus myosuroides (ALOMY); assay: as above; details: 312 h, rate 250 g/ha, evaluated after 13 days, read-out: Post-Emergence Activity ALOMY (100=total damage to plant; 0=no damage to plant)
Procedure: as §1

[4] = test system: Amaranthus retoflexus (AMARE); assay: as above; details: Amaranthus retroflexus, 312 h, rate 250 g/ha, evaluated after 13 days, read-out: Post-Emergence Activity AMARE (100=total damage to plant; 0=no damage to plant)
Procedure: as §1

[5] = test system: Avena fatua (AVEFA); assay: as above; details: 312 h, rate 250 g/ha, evaluated after 13 days, read-out: Post-Emergence Activity AVEFA (100=total damage to plant; 0=no damage to plant)
Procedure: as §1

[6] = test system: Setaria faberi (SETFA); assay: Example B pre-emergence herbicidal test, glasshouse; details: Setaria faberi, 312 h, rate 250 g/ha, evaluated after 13 days, 100=total damage to plant, 0=no damage to plant, read-out: Pre-Emergence Activity SEFTA
Procedure: as §1

[7] = test system: Echinochloa crus-galli (ECHCG); assay: as above; details: Echinochloa crus-galli, 312 h, rate 250 g/ha, evaluated after 13 days, 100=total damage to plant, 0=no damage to plant, read-out: Pre-Emergence Activity ECHGG
Procedure: as §1

[8] = test system: Alopecurus myosuroides (ALOMY); assay: as above; details: 312 h, rate 250 g/ha, evaluated after 13 days, 100=total damage to plant, 0=no damage to plant
Procedure: as §1

[9] = test system: Amaranthus retoflexus (AMARE); assay: as above; details: Amaranthus retroflexus, 312 h, rate 250 g/ha, evaluated after 13 days, 100=total damage to plant, 0=no damage to plant
Procedure: as §1

[10] = test system: Avena fatua (AVEFA); assay: as above; details: 312 h, rate 250 g/ha, evaluated after 13 days, 100=total damage to plant, 0=no damage to plant
Procedure: as §1

| SMILES | pest or weed control at 250 g/ha [1] [%] | pest or weed control at 250 g/ha [2] [%] | pest or weed control at 250 g/ha [3] [%] | pest or weed control at 250 g/ha [4] [%] | pest or weed control at 250 g/ha [5] [%] | pest or weed control at 250 g/ha [6] [%] | pest or weed control at 250 g/ha [7] [%] | pest or weed control at 250 g/ha [8] [%] | pest or weed control at 250 g/ha [9] [%] | pest or weed control at 250 g/ha [10] [%] |
| --- | --- | --- | --- | --- | --- | --- | --- | --- | --- | --- |
| CCc1sc(-c2ccc(Cl)c(F)c2)nc1C1C(=O)C(C)(C)OC(C)(C)C1=O [Compound T48] | 100 | 100 | 100 | 0 | 100 | 70 | 50 | 30 | 0 | 60 |
| CCc1sc(-c2ccc(Br)cc2)nc1C1C(=O)C(C)(C)OC(C)(C)C1=O [Compound T49] | 100 | 100 | 100 | 20 | 100 | 80 | 60 | 60 | 0 | 20 |
| CCc1sc(-c2ccc(Cl)cc2)nc1C1C(=O)C2CCC(C)(O2)C1=O (centres unmarked) [Compound T50, 3-[2-(4-chloro-phenyl)-5-ethyl-thiazol-4-yl]-1-methyl-8-oxa-bicyclo[3.2.1]-octane-2,4-dione] | 100 | 100 | 100 | 0 | 100 | 100 | 100 | 90 | 0 | 90 |
| Cc1sc(-c2ccc(I)cc2)nc1C1C(=O)C(C)(C)OC(C)(C)C1=O [Compound T51] | 100 | 90 | 100 | 0 | 90 | 100 | 60 | 40 | 0 | 80 |
| Cc1sc(-c2ccc(Br)cc2F)nc1C1C(=O)C(C)(C)OC(C)(C)C1=O [Compound T52] | 100 | 100 | 100 | 0 | 100 | 100 | 80 | 60 | 0 | 0 |
| CCc1sc(-c2ccc(Cl)cc2Cl)nc1C1C(=O)C(C)(C)OC(C)(C)C1=O [Compound T53] | 100 | 100 | 90 | 0 | 90 | 90 | 60 | 30 | 0 | 0 |
| CCc1sc(-c2ccc(Br)cc2F)nc1C1C(=O)C(C)(C)OC(C)(C)C1=O [Compound T54] | 100 | 100 | 100 | 0 | 100 | 100 | 100 | 100 | 20 | 90 |
| Cc1sc(-c2ccc(Cl)s2)nc1C1C(=O)C(C)(C)OC(C)(C)C1=O [Compound T55] | 60 | 70 | 40 | 0 | 0 | 50 | 20 | 0 | 0 | 0 |
| Cc1sc(-c2ccc(Br)cn2)nc1C1C(=O)C(C)(C)OC(C)(C)C1=O [Compound T56] | 90 | 80 | 30 | 0 | 20 | 20 | 10 | 0 | 0 | 0 |
| CCc1sc(-c2ccc(Br)cc2C)nc1C1C(=O)C(C)(C)OC(C)(C)C1=O [Compound T57] | 100 | 100 | 100 | 0 | 90 | 90 | 50 | 20 | 0 | 30 |
| Cc1cc(Br)ccc1-c1nc(C2C(=O)C(C)(C)OC(C)(C)C2=O)c(C)s1 [Compound T58] | 100 | 100 | 90 | 0 | 80 | 100 | 50 | 0 | 20 | 0 |
| Cc1sc(COc2ccc(Cl)cc2)nc1C1C(=O)C(C)(C)OC(C)(C)C1=O [Compound T59] | 30 | 70 | 30 | 0 | 0 | 0 | 0 | 0 | 0 | 0 |
| Cc1sc(-c2ccc(OC(F)F)cc2)nc1C1C(=O)C(C)(C)OC(C)(C)C1=O [Compound T60] | 90 | 90 | 50 | 0 | 40 | 70 | 20 | 40 | 0 | 0 |
| CCc1sc(-c2ccc(Cl)cc2C)nc1C1C(=O)C(C)(C)OC(C)(C)C1=O [Compound T61] | 90 | 100 | 90 | 0 | 70 | 100 | 100 | 80 | 0 | 0 |
| CCc1sc(-c2ccc(OC(F)F)cc2)nc1C1C(=O)C(C)(C)OC(C)(C)C1=O [Compound T62] | 100 | 100 | 100 | 0 | 100 | 100 | 60 | 90 | 0 | 0 |
| CCc1sc(-c2ccc(Br)cn2)nc1C1C(=O)C(C)(C)OC(C)(C)C1=O [Compound T63] | 100 | 100 | 80 | 0 | 90 | 20 | 30 | 20 | 0 | 20 |
| CCc1sc(-c2c(C)cc(Cl)cc2F)nc1C1C(=O)C(C)(C)OC(C)(C)C1=O [Compound T64] | 100 | 100 | 20 | 0 | 60 | 100 | 70 | 0 | 0 | 0 |
